How the values were obtained:
Type in all cases: in vivo
[1] = system: smartweed (ladysthumb smartweed, Polygonum persicaria); assay: Test E pre-/postemergence greenhouse test, plant response rating 0-100; conditions: scale 0 to 100; for Smartweed plant response rating: Preemergence
[2] = system: goosegrass (Eleusine indica); assay: as above; conditions: Preemergence, scale 0 to 100
kochia (Kochia scoparia) = assay: as above; conditions: Preemergence, scale 0 to 100
In short: (§1)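 Pre- and postemergence sprays, vehicle non-phytotoxic solvent containing surfactant; postemergence plants 2–18 cm tall at the 1–4-leaf stage. Scored against controls after 14 to 21 days in a greenhouse, 0 being no effect and 100 complete control.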

[3] = system: velvetleaf (Abutilon theophrasti); assay: as above; conditions: Preemergence, scale 0 to 100
In short: as §1

[4] = system: yellow nutsedge (Cyperus esculentus); assay: as above; conditions: Preemergence, scale 0 to 100
[5] = system: johnsongrass (Sorghum halepense); assay: as above; conditions: Preemergence, scale 0 to 100
[6] = system: goosegrass (Eleusine indica); assay: Test C postemergence greenhouse test, plant response rating 0-100; conditions: for Plant response rating, Goosegrass: scale 0 to 100
In short: (§2)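 Postemergence spray onto 1–4-leaf potted seedlings, greenhouse incubation 13–15 days. Visual percent-control rating (0–100) against untreated plants.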

[7] = system: winter barley (Hordeum vulgare); assay: as above; conditions: for Plant response rating, Barley: scale 0 to 100
In short: as §2

[8] = system: woolly cupgrass (Eriochloa villosa); assay: as above; conditions: for Plant response rating, Cupgrass, Woolly: scale 0 to 100
In short: as §2

[9] = system: canarygrass (Phalaris minor); assay: as above; conditions: for Plant response rating, Canarygrass: scale 0 to 100
In short: as §2

[10] = system: deadnettle (henbit deadnettle, Lamium amplexicaule); assay: as above; conditions: for Plant response rating, Deadnettle: scale 0 to 100
In short: as §2

[11] = system: surinam grass (Brachiaria decumbens); assay: as above; conditions: for Plant response rating, Surinam Grass: scale 0 to 100
In short: as §2

[12] = system: green foxtail (Setaria viridis); assay: as above; conditions: for Plant response rating, Foxtail, Green: scale 0 to 100
In short: as §2

[13] = system: bermudagrass (Cynodon dactylon); assay: as above; conditions: for Plant response rating, Bermudagrass: scale 0 to 100
In short: as §2

[14] = system: cocklebur (common cocklebur, Xanthium strumarium); assay: as above; conditions: for Plant response rating, Cocklebur: scale 0 to 100
In short: as §2

[15] = system: windgrass (Apera spica-venti); assay: as above; conditions: for Plant response rating, Windgrass: scale 0 to 100
In short: as §2

O=C(c1ccccc1)c1cn(S(=O)(=O)C(F)(F)F)nc1-c1cc(Cl)cc(Cl)c1 [Compound 2]
50: Nutsedge, Yellow plant response rating ([4]; 125 g ai/ha)
0: Smartweed plant response rating ([1]; 31 g ai/ha) | Smartweed plant response rating ([1]; 125 g ai/ha) | Smartweed plant response rating ([1]; 250 g ai/ha) | Goosegrass plant response rating ([2]; 31 g ai/ha) | Goosegrass plant response rating ([2]; 62 g ai/ha) | Goosegrass plant response rating ([2]; 125 g ai/ha) | Goosegrass plant response rating ([2]; 250 g ai/ha) | Goosegrass plant response rating ([2]; 500 g ai/ha) | Kochia plant response rating (kochia (Kochia scoparia); 31 g ai/ha) | Kochia plant response rating (kochia (Kochia scoparia); 62 g ai/ha) | Kochia plant response rating (kochia (Kochia scoparia); 125 g ai/ha) | Velvetleaf plant response rating ([3]; 31 g ai/ha) | Velvetleaf plant response rating ([3]; 62 g ai/ha) | Velvetleaf plant response rating ([3]; 125 g ai/ha) | Velvetleaf plant response rating ([3]; 250 g ai/ha) | Nutsedge, Yellow plant response rating ([4]; 31 g ai/ha) | Johnsongrass plant response rating ([5]; 31 g ai/ha) | Johnsongrass plant response rating ([5]; 62 g ai/ha) | Johnsongrass plant response rating ([5]; 125 g ai/ha) | Johnsongrass plant response rating ([5]; 250 g ai/ha) | Johnsongrass plant response rating ([5]; 500 g ai/ha)
100: Velvetleaf plant response rating ([3]; 500 g ai/ha)
35: Nutsedge, Yellow plant response rating ([4]; 500 g ai/ha)
40: Nutsedge, Yellow plant response rating ([4]; 250 g ai/ha)
90: Kochia plant response rating (kochia (Kochia scoparia); 500 g ai/ha)
65: Kochia plant response rating (kochia (Kochia scoparia); 250 g ai/ha)

Cn1cc(C(=O)c2ccccc2)c(-c2cc(Cl)cc(Cl)c2)n1 [Compound 54, [3-(3,5-dichlorophenyl)-1-methyl-1H-pyrazol-4-yl]phenylmethanone]
78: Velvetleaf plant response rating ([3]; 250 g ai/ha)
5: Plant response rating, Deadnettle ([10]; 250 g ai/ha)
28: Kochia plant response rating (kochia (Kochia scoparia); 250 g ai/ha)
87: Velvetleaf plant response rating ([3]; 125 g ai/ha)
0: Smartweed plant response rating ([1]; 125 g ai/ha) | Smartweed plant response rating ([1]; 250 g ai/ha) | Plant response rating (0 to 100), Goosegrass ([6]; 31 g ai/ha) | Plant response rating (0 to 100), Goosegrass ([6]; 62 g ai/ha) | Plant response rating (0 to 100), Goosegrass ([6]; 125 g ai/ha) | Plant response rating, Goosegrass ([6]; 250 g ai/ha) | Plant response rating (0 to 100), Barley ([7]; 31 g ai/ha) | Plant response rating (0 to 100), Barley ([7]; 62 g ai/ha) | Plant response rating (0 to 100), Barley ([7]; 125 g ai/ha) | Plant response rating, Barley ([7]; 250 g ai/ha) | Plant response rating (0 to 100), Cupgrass, Woolly ([8]; 31 g ai/ha) | Plant response rating (0 to 100), Cupgrass, Woolly ([8]; 62 g ai/ha) | Plant response rating (0 to 100), Cupgrass, Woolly ([8]; 125 g ai/ha) | Plant response rating, Cupgrass, Woolly ([8]; 250 g ai/ha) | Plant response rating (0 to 100), Canarygrass ([9]; 31 g ai/ha) | Plant response rating (0 to 100), Canarygrass ([9]; 62 g ai/ha) | Plant response rating (0 to 100), Canarygrass ([9]; 125 g ai/ha) | Plant response rating, Canarygrass ([9]; 250 g ai/ha) | Plant response rating (0 to 100), Deadnettle ([10]; 31 g ai/ha) | Plant response rating (0 to 100), Deadnettle ([10]; 62 g ai/ha) | Plant response rating (0 to 100), Deadnettle ([10]; 125 g ai/ha) | Plant response rating (0 to 100), Surinam Grass ([11]; 62 g ai/ha) | Plant response rating (0 to 100), Surinam Grass ([11]; 125 g ai/ha) | Plant response rating, Surinam Grass ([11]; 250 g ai/ha) | Plant response rating (0 to 100), Foxtail, Green ([12]; 31 g ai/ha) | Plant response rating (0 to 100), Foxtail, Green ([12]; 62 g ai/ha) | Plant response rating (0 to 100), Foxtail, Green ([12]; 125 g ai/ha) | Plant response rating, Foxtail, Green ([12]; 250 g ai/ha) | Plant response rating (0 to 100), Bermudagrass ([13]; 31 g ai/ha) | Plant response rating (0 to 100), Bermudagrass ([13]; 62 g ai/ha) | Plant response rating (0 to 100), Bermudagrass ([13]; 125 g ai/ha) | Plant response rating, Bermudagrass ([13]; 250 g ai/ha) | Plant response rating (0 to 100), Cocklebur ([14]; 31 g ai/ha) | Plant response rating (0 to 100), Cocklebur ([14]; 62 g ai/ha) | Plant response rating (0 to 100), Cocklebur ([14]; 125 g ai/ha) | Plant response rating, Cocklebur ([14]; 250 g ai/ha) | Plant response rating (0 to 100), Windgrass ([15]; 62 g ai/ha) | Plant response rating (0 to 100), Windgrass ([15]; 125 g ai/ha) | Plant response rating, Windgrass ([15]; 250 g ai/ha) | Kochia plant response rating (kochia (Kochia scoparia); 125 g ai/ha)
97: Plant response rating, Kochia (kochia (Kochia scoparia); 1000 g ai/ha)

CCn1cc(C(=O)c2cccs2)c(-c2cc(Cl)cc(Cl)c2)n1 [Compound 18]
20: Plant response rating, Smartweed ([1]; Postemergence, 500 g ai/ha) | Plant response rating, Cupgrass, Woolly ([8]; 500 g ai/ha) | Plant response rating (0 to 100), Deadnettle ([10]; 62 g ai/ha) | Plant response rating, Cocklebur ([14]; 500 g ai/ha)
0: Plant response rating (0 to 100), Goosegrass ([6]; 62 g ai/ha) | Plant response rating (0 to 100), Goosegrass ([6]; 125 g ai/ha) | Plant response rating (0 to 100), Barley ([7]; 62 g ai/ha) | Plant response rating, Barley ([7]; 125 g ai/ha) | Plant response rating, Barley ([7]; 250 g ai/ha) | Plant response rating, Barley ([7]; 500 g ai/ha) | Plant response rating (0 to 100), Canarygrass ([9]; 62 g ai/ha) | Plant response rating (0 to 100), Canarygrass ([9]; 125 g ai/ha) | Plant response rating, Canarygrass ([9]; 250 g ai/ha) | Plant response rating (0 to 100), Foxtail, Green ([12]; 62 g ai/ha) | Plant response rating (0 to 100), Foxtail, Green ([12]; 125 g ai/ha) | Plant response rating, Foxtail, Green ([12]; 250 g ai/ha) | Plant response rating, Foxtail, Green ([12]; 500 g ai/ha) | Plant response rating (0 to 100), Bermudagrass ([13]; 62 g ai/ha) | Plant response rating, Bermudagrass ([13]; 125 g ai/ha) | Plant response rating, Bermudagrass ([13]; 250 g ai/ha) | Plant response rating (0 to 100), Windgrass ([15]; 62 g ai/ha) | Plant response rating (0 to 100), Windgrass ([15]; 125 g ai/ha) | Plant response rating, Windgrass ([15]; 250 g ai/ha)
55: Plant response rating, Deadnettle ([10]; 250 g ai/ha)
40: Plant response rating (0 to 100), Deadnettle ([10]; 125 g ai/ha)
60: Plant response rating, Deadnettle ([10]; 500 g ai/ha)
10: Plant response rating, Goosegrass ([6]; 250 g ai/ha) | Plant response rating (0 to 100), Cupgrass, Woolly ([8]; 125 g ai/ha) | Plant response rating, Surinam Grass ([11]; 250 g ai/ha) | Plant response rating, Surinam Grass ([11]; 500 g ai/ha)
5: Plant response rating (0 to 100), Cupgrass, Woolly ([8]; 62 g ai/ha) | Plant response rating, Canarygrass ([9]; 500 g ai/ha) | Plant response rating (0 to 100), Surinam Grass ([11]; 62 g ai/ha) | Plant response rating (0 to 100), Surinam Grass ([11]; 125 g ai/ha) | Plant response rating, Bermudagrass ([13]; 500 g ai/ha) | Plant response rating (0 to 100), Cocklebur ([14]; 62 g ai/ha) | Plant response rating (0 to 100), Cocklebur ([14]; 125 g ai/ha) | Plant response rating, Windgrass ([15]; 500 g ai/ha)
15: Plant response rating, Goosegrass ([6]; 500 g ai/ha) | Plant response rating, Cupgrass, Woolly ([8]; 250 g ai/ha) | Plant response rating, Cocklebur ([14]; 250 g ai/ha)
